# From patent US20250228835A1, “PYRIDINYLOXYPYRIDINES AND RELATED COMPOUNDS AND THEIR USE IN TREATING MEDICAL CONDITIONS” (Rectify Pharmaceuticals, Inc., priority 2024, published 2025)
# Assays:
# ABCD2 WT = target: T1, ABCD2 WT (Homo sapiens, UniProt Q9UBJ2); assay: D2 correction dose-response assay: ABCD2 WT HiBit protein expression; type: cell-based; conditions: HEK-293/ABCD2 WT cells, 24 hours treatment, HiBit luminescence; class combines EC50 and Mean MaxAct (fold); read-out: ABCD2 WT EC50, Emax
# T1 construct: expressed in transfected cells
# T1 sequence (Q9UBJ2 1-740): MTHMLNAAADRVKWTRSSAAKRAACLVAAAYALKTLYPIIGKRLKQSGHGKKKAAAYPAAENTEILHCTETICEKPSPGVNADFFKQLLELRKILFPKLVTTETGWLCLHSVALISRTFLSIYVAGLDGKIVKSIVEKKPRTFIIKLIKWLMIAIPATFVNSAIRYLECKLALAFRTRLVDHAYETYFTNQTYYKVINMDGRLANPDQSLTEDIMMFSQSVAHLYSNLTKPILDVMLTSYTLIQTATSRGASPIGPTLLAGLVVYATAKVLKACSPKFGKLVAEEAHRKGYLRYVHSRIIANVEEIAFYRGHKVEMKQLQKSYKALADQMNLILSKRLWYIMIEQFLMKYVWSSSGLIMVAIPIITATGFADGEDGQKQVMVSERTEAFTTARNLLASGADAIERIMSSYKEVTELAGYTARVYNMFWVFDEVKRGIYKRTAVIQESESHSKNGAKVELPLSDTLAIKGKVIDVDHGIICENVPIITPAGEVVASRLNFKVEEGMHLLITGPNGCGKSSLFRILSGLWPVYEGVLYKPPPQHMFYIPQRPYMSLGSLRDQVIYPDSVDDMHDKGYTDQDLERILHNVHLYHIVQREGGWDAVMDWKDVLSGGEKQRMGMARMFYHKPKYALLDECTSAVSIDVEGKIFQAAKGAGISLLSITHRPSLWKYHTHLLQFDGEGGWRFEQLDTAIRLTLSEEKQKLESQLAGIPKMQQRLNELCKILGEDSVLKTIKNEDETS
# Summary of the method: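 HEK-293 cells stably expressing HiBit-tagged human ABCD2 WT were treated with 11 doses (3-fold dilutions, top final 30 μM, 0.3% DMSO) for 24 h at 37 °C. Expression was measured by HiBit lytic luminescence after 1 h at 25 °C, giving EC50 and Emax.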
# ABCC6 WT = target: T2, ABCC6 WT (Homo sapiens, UniProt O95255); assay: ABCC6 WT assay: HiBit protein expression; type: cell-based; conditions: HEK-293 cells transiently expressing HiBit-tagged ABCC6 WT; 24 h treatment; top concentration 20 μM; read-out: ABCC6 WT EC50, Emax
# T2 construct: expressed in transfected cells; host or cells: HEK-293 (transient, Lipofectamine 2000)
# Summary of the method: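 HEK-293 cells transiently transfected with HiBit-tagged human ABCC6 WT cDNA, seeded 24 h post-transfection, treated 24 h at 37° C with ten 2-fold doses (top 20 μM final, 0.15% DMSO). HiBit lytic luminescence reports protein expression; Emax and EC50 derived.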
# T2 sequence (O95255 whole entry): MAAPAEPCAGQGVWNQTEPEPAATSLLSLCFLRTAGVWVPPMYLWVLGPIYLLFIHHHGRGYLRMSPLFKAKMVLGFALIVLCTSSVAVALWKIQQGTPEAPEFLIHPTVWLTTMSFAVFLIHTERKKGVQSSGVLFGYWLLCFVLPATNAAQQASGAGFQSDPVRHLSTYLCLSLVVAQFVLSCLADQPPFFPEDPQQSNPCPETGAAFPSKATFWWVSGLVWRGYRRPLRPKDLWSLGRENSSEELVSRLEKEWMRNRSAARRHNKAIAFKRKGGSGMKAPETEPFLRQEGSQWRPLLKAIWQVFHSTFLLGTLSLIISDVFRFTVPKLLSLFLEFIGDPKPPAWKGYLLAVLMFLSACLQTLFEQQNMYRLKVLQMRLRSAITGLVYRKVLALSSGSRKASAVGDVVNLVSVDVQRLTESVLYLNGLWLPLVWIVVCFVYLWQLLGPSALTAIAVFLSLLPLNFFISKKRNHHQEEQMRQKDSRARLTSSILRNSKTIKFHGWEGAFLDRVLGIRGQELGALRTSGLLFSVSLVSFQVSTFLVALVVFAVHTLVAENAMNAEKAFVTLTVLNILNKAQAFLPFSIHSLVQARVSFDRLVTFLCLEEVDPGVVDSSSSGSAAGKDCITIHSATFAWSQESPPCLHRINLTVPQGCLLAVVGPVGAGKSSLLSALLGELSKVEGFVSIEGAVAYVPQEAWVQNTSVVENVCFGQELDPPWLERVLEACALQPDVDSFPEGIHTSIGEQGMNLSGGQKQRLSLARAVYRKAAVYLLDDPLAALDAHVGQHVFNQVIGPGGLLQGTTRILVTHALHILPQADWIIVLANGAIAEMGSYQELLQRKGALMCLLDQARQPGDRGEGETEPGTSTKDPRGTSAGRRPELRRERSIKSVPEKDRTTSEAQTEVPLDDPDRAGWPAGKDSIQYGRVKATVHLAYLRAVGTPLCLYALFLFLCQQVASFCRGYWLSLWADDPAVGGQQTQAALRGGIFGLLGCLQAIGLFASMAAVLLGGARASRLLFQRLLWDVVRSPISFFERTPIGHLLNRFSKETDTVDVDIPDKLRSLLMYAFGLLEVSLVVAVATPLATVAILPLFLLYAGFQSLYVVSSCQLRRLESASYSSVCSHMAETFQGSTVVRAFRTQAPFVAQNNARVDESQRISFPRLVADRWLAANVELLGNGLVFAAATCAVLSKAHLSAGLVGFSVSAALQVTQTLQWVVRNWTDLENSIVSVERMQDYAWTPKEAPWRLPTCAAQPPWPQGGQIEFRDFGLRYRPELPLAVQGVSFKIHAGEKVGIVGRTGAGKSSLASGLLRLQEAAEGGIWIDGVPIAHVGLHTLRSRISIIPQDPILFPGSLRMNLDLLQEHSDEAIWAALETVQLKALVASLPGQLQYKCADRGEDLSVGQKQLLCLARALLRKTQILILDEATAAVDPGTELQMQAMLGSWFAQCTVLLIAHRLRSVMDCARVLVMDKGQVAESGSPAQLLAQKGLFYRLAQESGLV
EC50 (ABCD2 WT),EC50 (ABCC6 WT),SMILES
< 25000 nM,1000 to 10000 nM,Cc1cc(Oc2nc(-c3cncc(C#N)c3)ccc2NS(C)(=O)=O)nn1C [Compound I-113]
1000 to 10000 nM,1000 to 10000 nM,Cc1cc(C)c(Oc2nc(-c3cncc(C#N)c3)ccc2N(C)S(C)(=O)=O)c(C)n1 [Compound I-166]
< 1000 nM,< 1000 nM,Cc1cc(OC2CC2)nc(C)c1Oc1nc(-c2cncc(C#N)c2)ccc1NS(C)(=O)=O [Compound I-132]
10000 to 25000 nM,< 1000 nM,Cc1cc(C(F)(F)F)nc(C)c1Oc1nc(-c2cncc(C#N)c2)ccc1NS(=O)(=O)C1CC1 [Compound I-218]
> 25000 nM,< 1000 nM,Cc1cc(C2CC2)nc(C)c1Oc1nc(-c2ccnc(C#N)c2)ccc1NS(C)(=O)=O [Compound I-213]
< 1000 nM,< 1000 nM,Cc1cc(C)c(Oc2nc(-c3cncc(C#N)c3)ccc2NS(C)(=O)=O)c(OC2CC2)n1 [Compound I-176]
1000 to 10000 nM,1000 to 10000 nM,Cc1cc(C)c(Oc2nc(-c3cnn(C)c3)ccc2NS(C)(=O)=O)c(C)c1 [Compound I-14]
> 25000 nM,1000 to 10000 nM,COC(=O)c1cncc(-c2ccc(NS(C)(=O)=O)c(Oc3cc(C)n(C)n3)n2)c1 [Compound I-206]
1000 to 10000 nM,1000 to 10000 nM,Cc1cc(C(F)F)nc(C)c1Oc1nc(-c2cncc(C#N)c2)ccc1NS(=O)(=O)C1CC1 [Compound I-199]
< 1000 nM,< 1000 nM,Cc1cc(C)c(Oc2nc(-c3cncc(Cl)c3)ccc2NS(=O)(=O)C2COC2)c(C)n1 [Compound I-237]
< 1000 nM,< 1000 nM,Cc1nc(C2CC2)nc(C)c1Oc1nc(-c2cncc(C#N)c2)ccc1NS(C)(=O)=O [Compound I-183]
> 25000 nM,< 1000 nM,Cc1nc(C2CCC2)nc(C)c1Oc1nc(-c2cncc(C#N)c2)ccc1NS(C)(=O)=O [Compound I-181]
< 1000 nM,< 1000 nM,Cc1nc(C(F)F)nc(C)c1Oc1nc(-c2cncc(C#N)c2)ccc1NS(C)(=O)=O [Compound I-173]
1000 to 10000 nM,< 1000 nM,Cc1nc(OC2CC2)c(C(F)(F)F)cc1Oc1nc(-c2cncc(C#N)c2)ccc1NS(C)(=O)=O [Compound I-178]
> 25000 nM,≥ 25000 nM,Cc1cc(C)c(Oc2nc(-c3cc[nH]c(=O)c3)ccc2NS(C)(=O)=O)c(C)n1 [Compound I-187]
1000 to 10000 nM,< 1000 nM,Cc1cc(C)c(Oc2nc(-c3cncc(CO)c3)ccc2NS(C)(=O)=O)c(C)n1 [Compound I-227]
< 1000 nM,< 1000 nM,Cc1nn(C)c(C)c1Oc1nc(-c2cncc(C#N)c2)ccc1NS(C)(=O)=O [Compound I-115]
< 1000 nM,< 1000 nM,Cc1cc(Oc2nc(-c3cncc(C#N)c3)ccc2NS(C)(=O)=O)c(C)nc1C [Compound I-226]
< 1000 nM,< 1000 nM,Cc1cc(C)c(Oc2nc(-c3ccnc(C#N)c3)ccc2NS(=O)(=O)C2CC2)c(C)n1 [Compound I-211]
< 1000 nM,< 1000 nM,COc1nc(C)cc(C)c1Oc1nc(-c2cncc(C#N)c2)ccc1NS(C)(=O)=O [Compound I-209]
